The values below come from patent US20150018376A1, “PYRIMIDIN-4-YL)OXY)-1H-INDOLE-1-CARBOXAMIDE DERIVATIVES AND USE THEREOF” (NOVARTIS AG, priority 2013, published 2015).

For one data set, the target named is T1, KDR (GST-KDR(807-1356)) (Homo sapiens, UniProt P35968).
T1 construct: GST-KDR(807-1356), internally produced recombinant protein; GST (N); made in house
Put plainly: KDR protein kinase activity, LanthaScreen TR-FRET. In kind it is biochemical. The note with it: 2 μM ATP, 1 hour incubation. The protocol:
A generic assay set-up has been run at room temperature on a liquid handling robot. To the assay plates containing 50 nL compound or control solutions, 4.5 μL of ATP mix (20 mM Tris-HCl pH7.4, 1 mM DTT, 0.025% Tween20, 0.01 mM Na3VO4, 10 mM MgCl2, 1 mM MnCl2, and 4 μM ATP) were added per well. Subsequently, 4.5 μL of enzyme-substrate mix (20 mM Tris-HCl pH7.4, 1 mM DTT, 0.025% Tween20, 0.01 mM Na3VO4, 10 mM MgCl2, 1 mM MnCl2, 0.5% BSA, 100 nM fluorescein labeled poly(EAY), and 0.76 nM KDR (GST-KDR(807-1356), internally produced recombinant protein) were added.
The final reaction volume is 9.05 μL with final reagent concentrations of 20 mM Tris-HCl pH7.4, 1 mM DTT, 0.025% Tween20, 0.01 mM Na3VO4, 10 mM MgCl2, 1 mM MnCl2, including a generic concentration of 2 μM ATP, 50 nM of substrate fluorescein labeled poly(EAY), and 0.38 nM enzyme.
After 1 hour of incubation the kinase reactions have been stopped by the addition of 4.5 μL of stop solution (20 mM Tris-HCl pH7.4, 1 mM DTT, 0.025% Tween20, 0.01 mM Na3VO4, 50 mM EDTA) immediately followed by 4.5 μL of antibody solution (20 mM Tris-HCl pH7.4, 1 mM DTT, 0.025% Tween20, 0.01 mM Na3VO4, 1.72 μg/ml Tb-PY20).
After an incubation time of 45 min in the dark, the plates were transferred into a fluorescence reader and counted in time resolved fluorescence mode (settings according to the reagent supplier's recommendation). The effect of compound on the enzymatic activity was obtained from end point measurement.
On the technique in general: In TR-FRET formats the signal depends on donor and acceptor labels being close together.

Data set [1] can be described thus: Stability of crystalline form. It counts as physicochemical. As to conditions: HCl salt. An excerpt: Crystalline form B of the HCl salt of N-(1-methyl-5-(trifluoromethyl)-1H-pyrazol-3-yl)-5-((6-((methylamino)methyl)pyrimidin-4-yl)oxy)-1H-indole-1-carboxamide was obtained using the same procedure as in Example 5 above.
The next data set concerns human hepatocytes. Nature of the data set: Hepatocyte viability during incubation (ViaCount assay). It counts as cell-based. The note with it: 10 μmol/L, percent viable cells relative to total cells. The protocol:
(§1) After thawing the cryopreserved hepatocytes, the viable cells were enriched by centrifugation in HepatoZYME cell culture medium (Gibco Invitrogen). For this purpose, the cells were added to 45 mL of a 37° C. warm HepatoZYME, and centrifuged at room temperature, at 50 g for 5 min. The supernatant containing dead cells was discarded and the cells in the pellet were re-suspended in HepatoZYME.
(§2) The viability of the re-suspended hepatocytes was determined by a Guava EasyCyte™ Mini system using the ViaCount® assay as described by the supplier (Guava Technologies, Hayward, Calif., USA). After cell counting, the cell concentration was adjusted to approx. 1·10^6 viable cells/mL by adding HepatoZYME. Subsequently, the incubations were started by adding [^14C] N-(1-methyl-5-(trifluoromethyl)-1H-pyrazol-3-yl)-5-(6-((methylamino)methyl)pyrimidin-4-yloxy)-1H-indole-1-carboxamide and non-labeled N-(1-methyl-5-(trifluoromethyl)-1H-pyrazol-3-yl)-5-(6-((methylamino)methyl)pyrimidin-4-yloxy)-1H-indole-1-carboxamide as a solution in DMSO. The final concentration of DMSO in the incubations was 0.1% (v/v).
(§3) To check the chemical stability of [^14C] N-(1-methyl-5-(trifluoromethyl)-1H-pyrazol-3-yl)-5-(6-((methylamino)methyl)pyrimidin-4-yloxy)-1H-indole-1-carboxamide under the incubation conditions, the compound was incubated at a concentration of 10 μmol/L in HepatoZYME without hepatocytes. A second series of control incubations was performed with hepatocytes of all species in the absence of the test compound to investigate the effect of the latter on the viability. These experiments were performed in a 12×6 mL MultiWell™ plate (Art. 393503, Beckton Dickinson).
(§4) The incubations were performed at 37° C. under a humidified atmosphere of 95% relative humidity and 5% CO2 in a Heraeus incubator/cytoperm (Kendro Laboratory Products AG, Zürich, Switzerland). During the incubations, the plates and flasks were shaken at 300 strokes per minute. The viability of the hepatocytes was determined after 6 h (end of incubation).

For the next data set, the system named is monkey hepatocytes. The description is as above. It counts as cell-based. The note with it: 10 μmol/L, percent viable cells relative to total cells. As to the method:
as §1, §2, §3, §4

For a further data set, the system named is rabbit hepatocytes. Described as above. It counts as cell-based. As to conditions: 10 μmol/L, percent viable cells relative to total cells. As to the method: as §1, §2, §3, §4
Another data set concerns rat hepatocytes. The data set is described as above. In kind it is cell-based. The note with it: 10 μmol/L, percent viable cells relative to total cells. The protocol: as §1, §2, §3, §4
In data set [2] the test system is hepatocytes from rat, rabbit, monkey, and human. Nature of the data set: Hepatocyte viability during incubation, all species summarised. In kind it is cell-based. The note with it: 10 μmol/L, range over four species; initially 70-93%; controls without compound 4-21%. As to the method:
as §1
as §2, with “(v/v). […]” for “(v/v).”
The incubations were performed at 37° C. under a humidified atmosphere of 95% relative humidity and 5% CO2 in a Heraeus incubator/cytoperm (Kendro Laboratory Products AG, Zürich, Switzerland). […] The viability of the hepatocytes was determined after 6 h (end of incubation).

Data set [3] is described as follows: Control incubations in the absence of hepatocytes or liver microsomes (chemical stability). It counts as in vitro ADME. As to conditions: 10 μmol/L in HepatoZYME without hepatocytes (6 h) or buffer without microsomes (60 min), 37° C. As to the method: as §3
Microsomal incubations for metabolite profiles were performed at 10 μmol/L of [^14C] N-(1-methyl-5-(trifluoromethyl)-1H-pyrazol-3-yl)-5-(6-((methylamino)methyl)pyrimidin-4-yloxy)-1H-indole-1-carboxamide (approx. 50% radiolabeled) with one time point investigated (60 min). Incubations were performed at 37° C. in 0.1 mol/L sodium phosphate buffer pH 7.4. The final concentrations in the incubation cocktail were: 4 mmol/L UDPGA (Sigma-Aldrich), 1 mmol/L β-NADPH (Sigma-Aldrich), 5 mmol/L MgCl2, and 60 μg alamethicin (Sigma-Aldrich) per mg microsomal protein. The system was left to incubate for 10 min before adding the test compound to allow the pore formation with the alamethicin. The metabolic reaction was started by the addition of [^14C] […]
In general terms: Microsomes from liver hold many membrane-bound enzymes, among them those of drug oxidation.

Molecules are shown by their SMILES. Some results are limits rather than exact numbers.

T1 sequence (P35968 807-1356): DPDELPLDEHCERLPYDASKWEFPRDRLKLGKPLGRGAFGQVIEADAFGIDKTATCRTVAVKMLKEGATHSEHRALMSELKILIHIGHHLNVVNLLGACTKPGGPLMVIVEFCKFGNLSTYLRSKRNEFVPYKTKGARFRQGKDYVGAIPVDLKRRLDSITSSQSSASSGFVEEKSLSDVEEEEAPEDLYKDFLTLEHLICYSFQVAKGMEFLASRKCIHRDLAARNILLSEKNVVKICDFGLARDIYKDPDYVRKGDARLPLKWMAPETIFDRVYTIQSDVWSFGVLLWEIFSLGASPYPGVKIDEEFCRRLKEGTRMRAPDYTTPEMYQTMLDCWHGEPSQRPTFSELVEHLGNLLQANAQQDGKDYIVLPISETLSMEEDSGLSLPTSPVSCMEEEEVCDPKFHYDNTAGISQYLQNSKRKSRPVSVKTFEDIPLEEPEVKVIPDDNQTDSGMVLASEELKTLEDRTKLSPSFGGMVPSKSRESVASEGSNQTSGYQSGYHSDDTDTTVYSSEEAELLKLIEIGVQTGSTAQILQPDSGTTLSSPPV

What is called IC50 is the concentration at which inhibition is half-maximal. `Cn1nc(NC(=O)n2ccc3cc(Oc4cc(/C=[N+](/C)[O-])ncn4)ccc32)cc1C(F)(F)F` [Example 1, (Z)-N-((6-((1-((1-methyl-5-(trifluoromethyl)-1H-pyrazol-3-yl)carbamoyl)-1H-indol-5-yl)oxy)pyrimidin-4-yl)methylene)methanamine oxide] registered a half-inhibitory concentration (IC50) at KDR (GST-KDR(807-1356)) of under 1 nM.

`Cn1nc(NC(=O)n2ccc3cc(Oc4cc(C(N)=O)ncn4)ccc32)cc1C(F)(F)F` [Example 2, 5-((6-Carbamoylpyrimidin-4-yl)oxy)-N-(1-methyl-5-(trifluoromethyl)-1H-pyrazol-3-yl)-1H-indole-1-carboxamide] registered a half-maximal inhibitory concentration (IC50) against KDR (GST-KDR(807-1356)) of 20 nM.

At KDR (GST-KDR(807-1356)), `Cn1nc(NC(=O)n2ccc3cc(Oc4cc(CN)ncn4)ccc32)cc1C(F)(F)F` [Example 3, 5-(6-(aminomethyl)pyrimidin-4-yloxy)-N-(1-methyl-5-(trifluoromethyl)-1H-pyrazol-3-yl)-1H-indole-1-carboxamide] came in with an IC50 of under 1 nM.

As for `CNCc1cc(Oc2ccc3c(ccn3C(=O)Nc3cc(C(F)(F)F)n(C)n3)c2)ncn1` [Form B, N-(1-methyl-5-(trifluoromethyl)-1H-pyrazol-3-yl)-5-((6-((methylamino)methyl)pyrimidin-4-yl)oxy)-1H-indole-1-carboxamide], in data set [1], the “stability of the crystalline form” value is listed as “transient form that converts back to Form A”.

`CNCc1cc(Oc2ccc3c(ccn3C(=O)Nc3cc(C(F)(F)F)n(C)n3)c2)ncn1` [[^14C] N-(1-methyl-5-(trifluoromethyl)-1H-pyrazol-3-yl)-5-(6-((methylamino)methyl)pyrimidin-4-yloxy)-1H-indole-1-carboxamide]: the “Viability at 6 h” value was found to be 25% in the data set with human hepatocytes, 42% with monkey hepatocytes, 8% in the data set with rabbit hepatocytes and 22% with rat hepatocytes. The “viability of the hepatocytes after 6 hours” value in data set [2] was 8-42%. Besides, in data set [3], the “chemical stability in the incubation media” value is given as “confirmed the stability of the compound”.
